Assay results reported in US11180510B2, “Xanthine derivatives and uses thereof as inhibitors of bromodomains of BET proteins” (Centre national de la recherche scientifique, priority 2017, dated 2021).
Counter-ions that a name gives are not always drawn.

Target: BRD4(BD1) (Homo sapiens, UniProt O60885)
Assay: HTRF assay, BRD4(BD1)/histone peptide interaction
Assay type: binding
Design: made in house
Details: HTRF; triplicates; NA = IC50 > maximal concentration of compound used
Description: HTRF assays were performed in white 384 Well Small Volume™ HiBase Polystyrene Microplates (Greiner) with a total working volume of 20 μL. Compounds were dispensed, with 100 nL per well (0.5% final DMSO), from a concentration stock of 10 mM in 100% DMSO and with serial DMSO dilutions, using an Echo® 550 robot from the Access Labcyte platform (Labcyte) and based on the transfer of liquid by acoustic wave. Then, 19.5 μL of buffer is added, using a Multidrop Combi (Thermo Fisher Scientific). […] All HTRF reagents (donor and acceptor) were purchased from CisBio Bioassays and reconstituted according to the supplier protocols. The peptide was purchased from Genic Bio Synthetic. The BRD4(1) protein was produced and purified in the laboratory.
Percentage of inhibition was calculated using the following equation: % inhibition=[(compound signal)−(min signal)]/[(max signal)−(min signal)]*100, where ‘max signal’ is the signal ratio with the compound vehicle alone (DMSO) and ‘min signal’ the signal ratio without peptide.
Selectivity profiles of bromodomain inhibitors were performed as described in HTRF screen section. […] HTRF detection reagents (EPIgeneous™ Binding Domain kits) were purchased from Cisbio Bioassays and used according to supplier's protocol. GST tagged bromodomain proteins were purchased from BPS Bioscience and histone peptide from Genic Bio Synthetic.

SMILES | IC50
O=C1CCCc2cc(S(=O)(=O)N3CCC(C(=O)NCCc4cccs4)CC3)ccc2N1 [Compound 11c] | > 50 µM
CCn1cnc2c1c(=O)[nH]c(=O)n2Cc1ccc(CNC(=O)C2CCC(CO)CC2)cc1 (stereo not drawn) [Compound 35b] | 7 µM
CCn1cnc2c1c(=O)[nH]c(=O)n2Cc1ccc(CNC(=O)[C@H]2CC[C@H](CN)CC2)cc1 [Compound 41a] | > 50 µM
CCn1cnc2c1c(=O)[nH]c(=O)n2Cc1ccc(CNC(=O)[C@@H]2CCC[C@H](NC(=O)OC(C)(C)C)C2)cc1 [Compound 39c] | 1.5 µM
CCn1cnc2c1c(=O)[nH]c(=O)n2Cc1ccc(CNS(=O)(=O)CCCN2CCOCC2)cc1 [Compound 22b] | 7.5 µM
O=C1CCCc2cc(S(=O)(=O)NCC3CCC(C(=O)NCc4cccc(O)c4)CC3)ccc2N1 (stereo not drawn) [Compound 7c] | 23 µM
COC(=O)C1CCC(CNS(=O)(=O)c2ccc3c(c2)CCCC(=O)N3)CC1 (stereo not drawn) [Compound 1c, Methyl 4-((2-oxo-2,3,4,5-tetrahydro-1H-benzo[b]azepine-7-sulfonamido)methyl)cyclohexanecarboxylate] | 53 µM
O=C1CCCc2cc(S(=O)(=O)NCC3CCC(C(=O)NCc4cccs4)CC3)ccc2N1 (stereo not drawn) [Compound 5a] | > 50 µM
CCn1cnc2c1c(=O)[nH]c(=O)n2Cc1ccc(CNC(=O)[C@H]2CC[C@H](CNC(=O)OC(C)(C)C)CC2)cc1 [Compound 38b] | 8.1 µM
CCn1cnc2c1c(=O)[nH]c(=O)n2Cc1ccc(CNC(=O)[C@@H]2C[C@@H](c3ccccc3)CN2)cc1 [Compound 40c] | 13 µM
Cc1noc(C)c1CNC(=O)C1CCC(CNS(=O)(=O)c2ccc3c(c2)CCCC(=O)N3)CC1 (stereo not drawn) [Compound 8a] | 22 µM
CCn1cnc2c1c(=O)[nH]c(=O)n2Cc1ccc(CNC(=O)[C@@H](N)CC2CC2)cc1 [Compound 41b] | > 50 µM
O=C1CCCc2cc(S(=O)(=O)NCc3ccc(C(=O)NCc4ccccn4)cc3)ccc2N1 [Compound 14a] | > 25 µM
CCn1cnc2c1c(=O)[nH]c(=O)n2Cc1ccc(CNC(=O)[C@@H]2CCCN(C(=O)OC(C)(C)C)C2)cc1 [Compound 39a] | 6.8 µM
CCC[C@H](NC(=O)OC(C)(C)C)C(=O)NCc1ccc(Cn2c(=O)[nH]c(=O)c3c2ncn3CC)cc1 [Compound 39b] | 2.3 µM
O=C1CCCc2cc(S(=O)(=O)NCC3CCC(C(=O)NCc4ccccn4)CC3)ccc2N1 (stereo not drawn) [Compound 6a] | 29 µM
O=C1CCCc2cc(S(=O)(=O)NCc3ccc(C(=O)NCc4ccncc4)cc3)ccc2N1 [Compound 14c] | > 25 µM
O=C1CCCc2cc(S(=O)(=O)NCC3CCC(C(=O)NCc4ccncc4)CC3)ccc2N1 (stereo not drawn) [Compound 6c] | 30 µM
CCn1cnc2c1c(=O)[nH]c(=O)n2Cc1ccc(CNC(=O)CCC(C)C)cc1 [Compound 36a] | 2.2 µM
CCn1cnc2c1c(=O)[nH]c(=O)n2Cc1ccc(CNC(=O)C2CCCC(N)C2)cc1 (stereo not drawn) [Compound 42b] | 32 µM
O=C1CCCc2cc(S(=O)(=O)NCc3ccc(C(=O)NCc4cccc(O)c4)cc3)ccc2N1 [Compound 15b] | 46 µM
CCn1cnc2c1c(=O)[nH]c(=O)n2Cc1ccc(CNC(=O)[C@H](CC2CC2)NC(=O)OC(C)(C)C)cc1 [Compound 38c] | 5.5 µM
CCn1cnc2c1c(=O)[nH]c(=O)n2Cc1ccc(CNC(=O)[C@@H]2C[C@@H](c3ccccc3)CN2C(=O)OC(C)(C)C)cc1 [Compound 38a] | 1.7 µM
CS(=O)(=O)NCC1CCC(C(=O)NCCc2cccs2)CC1 (stereo not drawn) [Compound 8c] | 18 µM
CCn1cnc2c1c(=O)[nH]c(=O)n2Cc1ccc(CNC(=O)[C@@H]2CCCNC2)cc1 [Compound 41c] | > 50 µM
CCCC(=O)N1CCC(C(=O)NCc2ccc(Cn3c(=O)[nH]c(=O)c4c3ncn4CC)cc2)CC1 [Compound 34b] | 2.8 µM
CCn1cnc2c1c(=O)[nH]c(=O)n2Cc1ccc(CNC(=O)CCC2CC2)cc1 [Compound 33b] | 4.7 µM
CCn1cnc2c1c(=O)[nH]c(=O)n2Cc1ccc(CNC(=O)C2CCN(C)C2)cc1 (stereo not drawn) [Compound 34a] | 4.3 µM

Results, then the compound that gave them:

IC50 | SMILES
1.8 µM | CCn1cnc2c1c(=O)[nH]c(=O)n2Cc1ccc(CNC(=O)[C@H](O)c2ccc(C)cc2)cc1 [Compound 35c]
0.6 µM | CCn1cnc2c1c(=O)[nH]c(=O)n2Cc1ccc(CNS(=O)(=O)c2ccc(-c3coc(C)n3)cc2)cc1 [Compound 30a]
2.2 µM | CCn1cnc2c1c(=O)[nH]c(=O)n2Cc1ccc(CNS(=O)(=O)c2ccc3oncc3c2)cc1 [Compound 26a]
1.7 µM | CCn1cnc2c1c(=O)[nH]c(=O)n2Cc1ccc(CNS(=O)(=O)c2cc(C)ns2)cc1 [Compound 24c]
4.5 µM | CCCn1cc(C(=O)NCc2ccc(Cn3c(=O)[nH]c(=O)c4c3ncn4CC)cc2)cn1 [Compound 33c, N-(4-((7-ethyl-2,6-dioxo-1H-purin-3(2H,6H,7H)-yl)methyl)benzyl)-1-propyl-1H-pyrazole-4-carboxamide]
3.5 µM | CCn1cnc2c1c(=O)[nH]c(=O)n2Cc1ccc(CNS(=O)(=O)c2cn(C)cn2)cc1 [Compound 23a]
0.687 µM | CCn1cnc2c1c(=O)[nH]c(=O)n2Cc1ccc(CNS(=O)(=O)c2ccc(C)cc2)cc1 [Compound 28c]
1.6 µM | CCn1cnc2c1c(=O)[nH]c(=O)n2Cc1ccc(CNS(=O)(=O)c2ccccc2)cc1 [Compound 29a]
0.687 µM | CCn1cnc2c1c(=O)[nH]c(=O)n2Cc1ccc(CNS(=O)(=O)c2ccc(OC)cc2)cc1 [Compound 30b]
4.5 µM | CCn1cnc2c1c(=O)[nH]c(=O)n2Cc1ccc(CNS(=O)(=O)CCN2CCOCC2)cc1 [Compound 22a]
0.769 µM | CCn1cnc2c1c(=O)[nH]c(=O)n2Cc1ccc(CNS(=O)(=O)c2ccc3c(c2)n(C)c(=O)n3C)cc1 [Compound 26b]
0.817 µM | CCn1cnc2c1c(=O)[nH]c(=O)n2Cc1ccc(CNS(=O)(=O)c2ccc3c(c2)CCN3C(C)=O)cc1 [Compound 26c]
1.3 µM | CCn1cnc2c1c(=O)[nH]c(=O)n2Cc1ccc(CNS(=O)(=O)c2cc(-c3ccno3)ccc2C)cc1 [Compound 27a]
4.3 µM | CCn1cnc2c1c(=O)[nH]c(=O)n2Cc1ccc(CNS(C)(=O)=O)cc1 [Compound 20b]
1.4 µM | CCn1cnc2c1c(=O)[nH]c(=O)n2Cc1ccc(CNS(=O)(=O)CCc2ccccc2)cc1 [Compound 22c]
1.3 µM | CCc1nc(S(=O)(=O)NCc2ccc(Cn3c(=O)[nH]c(=O)c4c3ncn4CC)cc2)cn1C [Compound 23c]
27 µM | CCn1cnc2c1c(=O)[nH]c(=O)n2Cc1ccc(CN)cc1 [Compound 20a, 3-(4-(aminomethyl)benzyl)-7-ethyl-1H-purine-2,6(3H,7H)-dione trifluoroacetic salt]
2.7 µM | CCn1cnc2c1c(=O)[nH]c(=O)n2Cc1ccc(CNS(=O)(=O)c2ccn(C(C)C)n2)cc1 [Compound 24a]
3.6 µM | CCCS(=O)(=O)NCc1ccc(Cn2c(=O)[nH]c(=O)c3c2ncn3CC)cc1 [Compound 20c]
0.723 µM | CCn1cnc2c1c(=O)[nH]c(=O)n2Cc1ccc(CNS(=O)(=O)c2cccc(NC(C)=O)c2)cc1 [Compound 31b]
4.9 µM | CCn1cnc2c1c(=O)[nH]c(=O)n2Cc1ccc(CNC(=O)C(NC(=O)OC(C)(C)C)c2ccc(C)cc2)cc1 (stereo not drawn) [Compound 37b]
5.2 µM | CCn1cnc2c1c(=O)[nH]c(=O)n2Cc1ccc(CNS(=O)(=O)CCOC)cc1 [Compound 21b]
0.729 µM | CCn1cnc2c1c(=O)[nH]c(=O)n2Cc1ccc(CNS(=O)(=O)c2ccc(N)cc2)cc1 [Compound 28b]
